# Residues, ends and D or L forms follow the SMILES beside them.
# Legend:
# [1] = system: Fibroblasts of human origin; assay: Fibroblast cytotoxicity test (MTT); type: cell-based; details: 24 h, OD 490 nm
# Method: A. Fibroblast cytotoxicity test
# Test materials: Fibroblasts of human origin (Guangdong Boxi Biotechnology Co., Ltd., Lot No. Fb20081902), DMEM culture medium (Gibco, 23042301, expiration date on 230522), PBS (Solarbio, P1010), MTT (Sigma, M5655), DMSO (Sigma, D4540-1L), CO2 incubator (Thermo, 150I), super-clean bench (AIRTECH, SW-CJ-1F), inverted microscope (Olympus, CKX53).
# Test methods: • 1) Cell inoculation: After cell resuscitation, the cells were inoculated into 96-well plates when the plating rate reached around 60%, and were incubated overnight in an incubator (37°C, 5% CO2). • 2) Test grouping: The blank group, solvent control group, positive control group, and sample group were set for the test. In the sample group, 7 concentration gradients were set for each sample and 3 duplicate wells were set for each concentration gradient. • 3) Formulation of solutions: Sample working solutions at different concentrations were formulated based on the test concentrations of 0.0781 µM, 0.1563 µM, 0.3125 µM, 0.625 µM, 1.25 µM, 2.5 µM, and 5 µM. • 4) Administration: Administration was performed when the cell plating rate in the 96-well plates reached 50% to 60%. 200 µL of culture medium per well was added for the solvent control group; 200 µL of culture medium containing 10% DMSO per well was added for the positive control group; 200 µL of culture medium containing the sample at a corresponding concentration per well was added for the sample group; The blank group had no cell inoculation, for which only 200 µL of cell culture medium was added. After the administration was complete, the 96-well plates were incubated in an incubator (37°C, 5% CO2) for 24 h. • 5) Detection: After 24 h of cell incubation and culture, the supernatant was discarded, and MTT working solution (0.5 mg/mL) was added. Incubation was performed at 37°C for 4 h in the dark. After the incubation was completed, the supernatant was discarded and 150 µL DMSO was added to each well. The OD value was read at 490 nm. • 6) Calculation of relative viability of cells: Calculation was performed according to the formula below: Relative viability of cells = (Sample well OD−Blank well OD)/(Solvent control well OD−Blank well OD) × 100%. [formula]
# [2] = system: Collagen I (type I collagen); assay: Collagen I elevation effect in fibroblasts (ELISA); type: cell-based, human; details: 1 µM, 24 h; result in words
# Text: (§1) B. Collagen I (type I collagen) elevation effect in fibroblasts, hyaluronic acid (HA) elevation effect in fibroblasts, and elastin (ELN) elevation effect in fibroblasts
# (§2) Test materials: Fibroblasts of human origin (Guangdong Boxi Biotechnology Co., Ltd., Lot No. Fb20081902), DMEM culture medium (Gibco, 23042301, expiration date 230522), PBS (Solarbio, P1010), TGF-β1 (Peprotech, 230504), Collagen I ELISA Kit (Cusabio, B21025824), Elastin ELISA kit (Abcam, GR3446070-2), HA ELISA kit (RD, P325066). CO2 incubator (Thermo, 1501), super-clean bench (AIRTECH, SW-CJ-1F), microplate reader (BioTek, Epoch).
# (§3) Test methods: • 1) Inoculation: After cell resuscitation, the cells were inoculated into 6-well plates when the plating rate reached around 60%, and were incubated overnight in an incubator (37°C, 5% CO2). • 2) Formulation of solutions: The cyclic peptide compounds in the sample group, PC2 (Biotinoyl-GHK, [drawing 2] ) and PC3 [drawing 3] in the positive reference group were all at the concentration of 1 µM, and the test substance working solutions were formulated. Only the cell culture medium was added for the blank control group (BC). • 3) Administration: When the cell plating rate in the 6-well plates reached 40% to 60%, administration was performed at 2 mL per well. 3 duplicate wells were set for each group. Incubation was performed in an incubator (37°C, 5% CO2) for 24 h. • 4) ELISA assay: The ELISA assay was performed according to the instructions of the ELISA kit, with the detection indicators being Collagen I elevation effect in the fibroblasts, HA elevation effect in the fibroblasts, and elastin elevation effect in the fibroblasts.
# hyaluronic acid (HA) = assay: Hyaluronic acid (HA) elevation effect in fibroblasts (ELISA); type: cell-based, human; design: HA elevation effect in the fibroblasts: unit not given here; details: 1 µM, 24 h
# Text: as §1, §2, §3
# elastin (ELN) = assay: Elastin (ELN) elevation effect in fibroblasts (ELISA); type: cell-based, human; design: Elastin elevation effect in the fibroblasts: unit not given here; details: 1 µM, 24 h
# Text: as §1, §2, §3
smiles,measurement,setting,value
CC(C)C[C@@H]1NC(=O)[C@H](Cc2ccccc2)NC(=O)[C@H](CC(C)C)NC(=O)[C@H](CCCCN)NC(=O)[C@H](Cc2c[nH]cn2)NC(=O)CNC1=O [compound 292] (cyclo(FLGHKL)),Relative viability of cells,[1]; 0.0781 µM,107.68%
same,Relative viability of cells,[1]; 0.1563 µM,107.63%
same,Relative viability of cells,[1]; 0.3125 µM,105.05%
same,Relative viability of cells,[1]; 0.625 µM,102.37%
same,Relative viability of cells,[1]; 1.25 µM,102.07%
same,Relative viability of cells,[1]; 2.5 µM,102.88%
same,Relative viability of cells,[1]; 5 µM,102.88%
same,type I collagen (Collagen I) content compared to the BC,[2],significant increase
same,HA elevation effect in the fibroblasts,"hyaluronic acid (HA); ELISA, Blank control (BC) 1402.44",2635.98
same,hyaluronic acid (HA) content compared to the BC,hyaluronic acid (HA); result in words,significant increase
same,Elastin elevation effect in the fibroblasts,"elastin (ELN); ELISA, Blank control (BC) 756.52",1278.99
same,elastin content compared to the BC,elastin (ELN); result in words,significant increase

# Reference: EP4786484A1, “CYCLIC PEPTIDE COMPOUND AND USE THEREOF” (Shenzhen Zhongge Biological Technology Co., Ltd., priority 2023, dated 2026)
